Source: US8138350B2, “N′-cyano-N-halogenalkylimidamide derivatives” (Bayer Cropscience AG, priority 2006, dated 2012)

Key:
Assay type in all cases: in vivo
Phaedon cochleariae = assay: Phaedon test (spray treatment); conditions: 20 g/ha; after 7 d; comparative example
Protocol: Phaedon Test (Spray Treatment)
To produce a suitable preparation of active compound, 1 part by weight of active compound is mixed with the stated amounts of solvents and emulsifier, and the concentrate is diluted with emulsifier-containing water to the desired concentration.
After the desired period of time, the activity in % is determined. 100% means that all beetle larvae have been killed, 0% means that none of the beetle larvae have been killed.
In this test, for example, the following compounds of the Preparation Examples show an activity of ≧80% at an application rate of 500 g/ha: […]

Ctenocephalides felis = assay: Ctenocephalides felis; oral; conditions: 100 ppm in citrated cattle blood, after 2 d, adult fleas, comparative example
Protocol: Ctenocephalides Felis; Oral
(§1) Solvent: Dimethyl sulphoxide
To produce a suitable preparation of active compound, 1 part by weight of active compound is mixed with the stated amount of […]. Part of the concentrate is diluted with citrated cattle blood, and the desired concentration is prepared.
20 unfed adult fleas (Ctenocephalides felis) are placed into a chamber whose top and bottom ends are closed with gauze. A metal cylinder whose bottom end is closed with parafilm is placed onto the chamber. The cylinder contains the blood/active compound preparation, which can be taken up by the fleas through the parafilm membrane. The blood is warmed to 37° C., but the flea chamber is at room temperature.
After the desired period of time, the kill in % is determined. 100% means that all fleas have been killed; 0% means that none of the fleas have been killed.

Musca domestica = Musca domestica test; conditions: 100 ppm; treated sponge; after 2 d; adult flies; comparative example
Protocol: as §1
To produce a suitable preparation of active compound, 1 part by weight of active compound is mixed with the stated amount of water, and the concentrate is diluted with water to the desired concentration.
Containers containing a sponge treated with the active compound preparation of the desired concentration are populated with adult Musca domestica.
After the desired period of time, the kill in % is determined. 100% means that all flies have been killed; 0% means that none of the flies have been killed.

Row | SMILES | Phaedon test spray treatment % 7 d (Phaedon cochleariae) | Ctenocephalides felis % 2 d (kill) (Ctenocephalides felis) | Musca domestica % 2 d (kill) (Musca domestica)
1 | CCN(Cc1ccc(Cl)nc1)C(C)=NC#N | 0% | 30% | 0%
2 | CC(=NC#N)N(Cc1ccc(Cl)nc1)CC(F)F [I-1, N-[(6-chloropyridin-3-yl)methyl]-N′-cyano-N-(2,2-difluoroethyl)ethanimidamide] | 100% | 70% | 100%
